Assay results taken from patent US5977169A, “Substituted tetronic acids useful for treating HIV and other retroviruses” (priority 1997, dated 1999).

Biological target: T1, HIV-1 protease (Human immunodeficiency virus type 1 group M subtype B, UniProt P04585)
T1 construct: The protease (or proteinase) enzyme, consisting of only 99 amino acids
Experiment: In vitro HIV protease inhibitory assay (fluorescently labeled substrate, avidin-polystyrene particles)
Type: biochemical
Conditions: for inhibition at 3.3 µM: HIV-1 dose 3.3 μM; for inhibition at 10 µM: HIV-1 dose 10.0 μM; for inhibition at 30 µM: HIV-1 dose 30.0 μM; for inhibition at 1 µM: HIV-1 dose 1.0 μM; for inhibition at 100 µM: HIV-1 dose 100.0 μM; for inhibition at 0.12 µM: HIV-1 dose 0.12 μM; for inhibition at 0.37 µM: HIV-1 dose 0.37 μM; for inhibition at 1.1 µM: HIV-1 dose 1.1 μM
Description: The HIV protease screening assay is based on a fluorescently labeled substrate which can be resolved from nonlabeled cleavage product using avidin-polystyrene particles, 0.7-0.9 μm. The substrate is biotinylated at the amino terminal arginine and fluorescently labeled with fluorescein isothiocynate (FITC) at the carboxyl terminal lysine. This assay has been employed to detect novel, nonpeptidic inhibitors of HIV-1 protease. Substrate (20 μl of 0.2 μM), sample (10 μl of desired concentraion), and enzyme (10 μl of 0.1 μM) are added to a 96 well pandex plate. The assay is run in 0.1 M sodium acetate buffer at pH 5.5 in the presence of 1.0 M sodium chloride and 0.05% NP-40 and incubated in the dark for one hour at room temperature. Avidin coated polystyrene beads (40 μl of 0.1% (w/v)) are added and the incubation is continued in the dark for an additional half hour. The labeled cleavage product is separated from the unreacted substrate via filtration and is read on the IDEXX Screen Machine. (IDEXX Corporation--Portland, Me.) The data are analyzed by appropriate computer algorithms to ascertain percent inhibition values.
The Activity Table showing the results of the HIV Protease Inhibitory Assay appears below in TABLE 1. The table has three columns, the left column provides the code number of the compound for easy cross reference to structure tables and detailed procedures, the middle column provides the concentration of test compound and the column on the right provides the percent inhibition.

Row | SMILES | inhibition at 3.3 µM [%] | inhibition at 10 µM [%] | inhibition at 30 µM [%] | inhibition at 1 µM [%] | inhibition at 100 µM [%] | inhibition at 0.12 µM [%] | inhibition at 0.37 µM [%] | inhibition at 1.1 µM [%]
1 | CCC(C1=C(O)C(Cc2ccccc2)OC1=O)c1ccccc1 (stereo not drawn) [BX-9, 2(5H)-Furanone, 4-hydroxy-5-(phenylmethyl)-3-(1-phenylpropyl)-] | 50.1 | 75.1 | 86.1 |  |  |  |  | 
2 | CC(CCc1ccccc1)C1OC(=O)C(C(c2ccccc2)C2CC2)=C1O (stereo not drawn) [GX-3, 2(5H)-Furanone, 3-(cyclopropylphenylmethyl)-4-hydroxy-5-(1-methyl-3-phenyl-propyl)-] | 67.2 | 84.7 | 87.4 |  |  |  |  | 
3 | O=C1OC(CCC2CCCCC2)C(O)=C1C(c1ccccc1)C1CC1 (stereo not drawn) [BX-5, 2(5H)-Furanone, 5-(2-cyclohexylethyl)-3-(cyclopropylphenylmethyl)-4-hydroxy-] |  | 61.2 |  | 12.6 | 71.5 |  |  | 
4 | O=C1OC(CCCc2ccccc2)(CCc2ccccc2)C(O)=C1C(c1ccccc1)C1CC1 (stereo not drawn) [DX-18, 2(5H)-Furanone, 3-(cyclopropylphenylmethyl)-4-hydroxy-5-(2-phenyl-ethyl)-5-(3-phenylpropyl)-] | 113 | 114 | 101 |  |  |  |  | 
5 | CCCC1(CCC)OC(=O)C(C(Cc2ccccc2)c2cccc(NS(=O)(=O)c3cn(C)cn3)c2)=C1O (stereo not drawn) [IX-40] | 90.8 | 91.1 | 104 |  |  |  |  | 
6 | O=C1OC2(CCCCCC2)C(O)=C1C(c1ccccc1)C1CC1 (stereo not drawn) [IX-8, 1-Oxaspiro[4.6]undec-3-en-2-one, 3-(cyclo-propylphenylmethyl)-4-hydroxy-] | 104 | 108 | 104 |  |  |  |  | 
7 | CCCC1(Cc2ccccc2)OC(=O)C(C(c2cccc(NS(=O)(=O)c3ccc(C#N)cc3)c2)C(C)C)=C1O (stereo not drawn) [IX-28] | 123 | 118 | 125 |  |  |  |  | 
8 | CCCC1(CCC)OC(=O)C(C(c2cccc(NS(=O)(=O)c3cccc4cccnc34)c2)C2CC2)=C1O (stereo not drawn) [IX-18] | 102 | 125 | 106 |  |  |  |  | 
9 | O=C1OC(Cc2ccccc2)(Cc2ccccc2)C(O)=C1C(c1cccc(NS(=O)(=O)c2ccc(F)cc2)c1)C1CC1 (stereo not drawn) [IX-44] | 90.3 | 92.3 | 80.3 |  |  |  |  | 
10 | CCCC1(CCC)OC(=O)C(C(c2cccc(NS(=O)(=O)c3ccc(F)cc3)c2)C2CC2)=C1O (stereo not drawn) [IX-16] | 108 | 109 | 106 |  |  |  |  | 
11 | CCCC1(Cc2ccccc2)OC(=O)C(C(c2cccc(NS(=O)(=O)c3ccccc3)c2)C(C)C)=C1O (stereo not drawn) [IX-27, Benzenesulfonamide, N-(3-(1-(2,5-dihydro-4-hydroxy-2-oxo-5--(phenylmethyl)-5-propyl-3-furanyl)-2-methylpropyl)phenyl)-] | 105 | 117 | 106 |  |  |  |  | 
12 | CCCC1OC(=O)C(C(c2ccccc2)C2CC2)=C1O (stereo not drawn) [BX-4, 2(5H)-Furanone, 3-(cyclopropylphenylmethyl)-4-hydroxy-5-propyl-] |  | 61.1 |  | < 10 | 83.3 |  |  | 
13 | CCCC1(CCC)OC(=O)C(C(c2cccc(NS(=O)(=O)c3ccccc3)c2)C2CC2)=C1O (stereo not drawn) [IX-15, Benzenesulfonamide, N-(3-(cyclopropyl(1,5-dihydro-4-hydroxy-2-oxo-5,5-dipropyl-3-furanyl)methyl)phenyl)-] |  |  |  |  |  | 94 | 102 | 104
14 | Cn1cnc(S(=O)(=O)Nc2cccc(C(C3=C(O)C(Cc4ccccc4)(Cc4ccccc4)OC3=O)C3CC3)c2)c1 (stereo not drawn) [IX-45, 1H-Imidazole-4-sulfonamide, N-(3-(cyclopropyl-(5,5-dibenzyl-4-hydroxy-2-oxo-2,5-dihydro-3-furanyl)methyl)phenyl)-1-methyl-] | 91.9 | 94.3 | 80.9 |  |  |  |  | 
15 | O=C1OC(Cc2ccccc2)(Cc2ccccc2)C(O)=C1C(c1ccccc1)C1CC1 (stereo not drawn) [DX-5, 2(5H)-Furanone, 3-(cyclopropylphenylmethyl)-4-hydroxy-5,5-bis(phenylmethyl)-] | 103 | 116 | 103 |  |  |  |  | 
16 | CC/C=C1\OC(=O)C(C(c2ccccc2)C2CC2)=C1O (stereo not drawn) [JX-3, 3-(Cyclopropyl-phenyl-methyl)-4-hydroxy-5-propylidene-5H-furan-2-one] | 43.2 | 65.3 | 96.3 |  |  |  |  | 

Row | SMILES | inhibition at 3.3 µM [%] | inhibition at 10 µM [%] | inhibition at 30 µM [%] | inhibition at 1 µM [%] | inhibition at 100 µM [%] | inhibition at 0.12 µM [%] | inhibition at 0.37 µM [%] | inhibition at 1.1 µM [%]
17 | O=C1OC(Cc2ccccc2)(Cc2ccccc2)C(O)=C1C(c1cccc(NS(=O)(=O)c2cccc3cccnc23)c1)C1CC1 (stereo not drawn) [IX-46, 8 Quinolinesulfonamide, N-(3-(cyclopropyl-(5,5-dibenzyl-4-hydroxy-2-oxo-2,5-dihydro-3-furanyl)methyl)phenyl)-] | 90.3 | 87 | 81.7 |  |  |  |  | 
18 | CCCC1(CCC)OC(=O)C(C(c2cccc(N)c2)C2CC2)=C1O (stereo not drawn) [IX-11, 2(5H)-Furanone, 3-((3-aminophenyl)cyclopropylmethyl)-4-hydroxy-5,5-dipropyl-] | 108 | 108 | 114 |  |  |  |  | 
19 | CCCC1(CCC)OC(=O)C(C(c2ccccc2)c2cccc(NS(=O)(=O)c3ccc(C#N)cc3)c2)=C1O (stereo not drawn) [IX-47, Benzenesulfonamide, 4-cyano-N-(3-((5,5-dipropyl-4-hydroxy-2-oxo-2,5-dihydro-3-furanyl)-phenyl-methyl)phenyl)-] | 93.5 | 103 | 88.3 |  |  |  |  | 
20 | CCCC1(CCC)OC(=O)C(C(Cc2ccccc2)c2cccc(NS(=O)(=O)c3ccc(C#N)cc3)c2)=C1O (stereo not drawn) [IX-39, Benzenesulfonamide, 4-cyano-N-(3-(1-(4-hydroxy-2-oxo-5,5-dipropyl-2,5-dihydro-furan-3-yl)-2-phenyl-ethyl)-phenyl)-] | 76.8 | 78.1 | 106 |  |  |  |  | 
21 | CCCC1(Cc2ccccc2)OC(=O)C(C(c2ccccc2)C2CC2)=C1O (stereo not drawn) [DX-4, 2(5H)-Furanone, 3-(cyclopropylphenylmethyl)-4-hydroxy-5-(phenyl-methyl)-5-propyl-] | 125 | 128 | 116 |  |  |  |  | 
22 | O=C1OC2(CCNCC2)C(O)=C1C(c1ccccc1)C1CC1 (stereo not drawn) [OX-2, 3-(Cyclopropyl-phenyl-methy1)-4-hydroxy--1-oXa-8-aza-spiro[4.5]dec-3-en-2-one] | 14.9 | 34.1 | 59 |  |  |  |  | 
23 | CCCC1(CCC)OC(=O)C(C(CC)c2cccc(N)c2)=C1O (stereo not drawn) [IX-13, 2(5H)-Furanone, 3-(1-(3-aminophenyl)propyl)-4-hydroxy-4-hydroxy-5,5-dipropyl-] | 59.9 | 86.5 | 89.4 |  |  |  |  | 
24 | CC(C)CC1(CCCc2ccccc2)OC(=O)C(C(c2ccccc2)C2CC2)=C1O (stereo not drawn) [DX-20, 2(5H)-Furanone, 3-(cyclopropylphenylmethy)-4-hydroxy-5-(2-methylpropyl)-5--(3-phenylpropyl)-] |  |  |  |  |  | 29.2 | 71.5 | 90.3
25 | CC1(Cc2ccccc2)OC(=O)C(C(c2ccccc2)C2CC2)=C1O (stereo not drawn) [DX-2, 2(5H)-Furanone, 3-(cyclopropylphenylmethyl)-4-hydroxy-5-methyl-5-(phenyl-methyl)-] | 94.5 | 98.2 | 104 |  |  |  |  | 
26 | CCCCC1(CCCc2ccccc2)OC(=O)C(C(c2ccccc2)C2CC2)=C1O (stereo not drawn) [DX-12, 2(5H)-Furanone, 5-butyl-3-(cyclopropylphenylmethyl)-4-hydroxy-5-(3-phenyl-propyl)-] | 116 | 129 | 123 |  |  |  |  | 
27 | CCCC1(CCC)OC(=O)C(C(c2cccc(NS(=O)(=O)c3nc4ccccc4[nH]3)c2)C2CC2)=C1O (stereo not drawn) [IX-51] | 101 | 102 | 106 |  |  |  |  | 
28 | CC(C)(C)OC(=O)N1CCC2(CC1)OC(=O)C(C(c1ccccc1)C1CC1)=C2O (stereo not drawn) [OX-1, 3-(Cyclopropyl-phenyl-methyl)-4-hydroxy-2-oXo-1-oca-8-aza-spiro[4.5]dec-3-ene-8-carboxylic acid tert-butyl ester] | 78.8 | 89.9 | 100 |  |  |  |  | 
29 | O=C1OC(=CCCc2ccccc2)C(O)=C1C(c1ccccc1)C1CC1 (stereo not drawn) [JX-1, 3-(Cyclopropyl-phenyl-methyl)-4-hydroxy-5-(3-phenyl-propyl-idene)-5H-furan-2-one] | 94.3 | 103 | 103 |  |  |  |  | 
30 | CCC1(Cc2ccccc2)OC(=O)C(C(c2ccccc2)C2CC2)=C1O (stereo not drawn) [DX-3, 2(5H)-Furanone, 3-(cyclopropylphenylmethyl)-5-ethyl-4-hydroxy-5-(phenyl-methyl)-] | 95.5 | 103 | 105 |  |  |  |  | 
31 | O=C1OC(CCCc2ccccc2)(CCCc2ccccc2)C(O)=C1C(c1ccccc1)C1CC1 (stereo not drawn) [DX-13, 2(5H)-Furanone, 3-(cyclopropylphenylmethyl)-4-hydroxy-5,5-bis(3-phenyl-propyl)-] | 85 | 102 | 106 |  |  |  |  | 
